System: patients with RET fusion-positive NSCLC
Experiment: Phase 2 trial: adverse events (CTCAE)
Type: in vivo, human
Text: The phase 2 trial was still ongoing. It was a single-arm, multicenter, open-label, nonrandomized study to assess the efficacy and safety of HA121-28 in RET-fusion-positive NSCLC.
Patients aged 18–75 years (inclusive) who had unresectable locally advanced or metastatic NSCLC through histologically or cytologically examination were enrolled. Patients were also required to have documented RET fusions centrally examined by next-generation sequencing in certified laboratories but without other oncogenic alterations. Had progression on at least one previous line of standard treatment but have no previous use of other anti-RET inhibitors. The complete lists of inclusion and exclusion criteria of phase 1 and phase 2 are provided in both protocols (in Supplement).
In phase 1 trial, during the dose-escalation part, patients first administered HA121-28 in a single ascending dose under the fasted state, then followed up for seven days. Then, patients received ascending doses of HA121-28 (q.d.) on a 21-day on and 7-day off treatment scheme for a 28-day cycle. For patients deemed beneficial from the treatment by investigators, treatment could remain until disease progression, or they discontinued from the study. In the dose-expansion part of phase 1, as well as phase 2, patients received HA121-28 (q.d.) at the selected doses on a 21-day on and 7-day off treatment scheme until disease progression, or they discontinued from the study.
Treatment-emergent adverse events (TEAEs) were documented during the entire study period. The predefined adverse event of special interest (AESI) was ≥ grade 3 prolonged QT interval. Tumor imaging was performed using contrast-enhanced computed tomography or magnetic resonance imaging at screening, Day 28 of the first cycle, then approximately every eight weeks till the end of the study for phase 1; in phase 2, imaging was scheduled at screening, and every eight weeks during the first 40 weeks, followed by every 12 weeks for the rest of the study period. RECIST 1.1 was used by the independent review committee or investigators for assessment of tumor response. After the original assessment, a repeated assessment was required around four weeks later to confirm a complete or partial response.
The primary endpoint of phase 2 was the independent review committee evaluated ORR using RECIST 1.1. The secondary endpoints included investigators assessed ORR; DCR, PFS, and DOR by the independent review committee and investigators; overall survival and TEAEs. Each TEAE was graded according to CTCAE version 5.0 and coded by MedDRA (version 24.0). The phase 2 trial is ongoing; not all endpoints are reported in this paper.

COc1cc2c(Nc3ccc(Br)cc3F)ncnc2cc1OCCCCN(C)C.Cl.Cl [HA121-28, N-(4-bromo-2-fluorophenyl)-7-(4-(dimethylamino)butoxy)-6-methoxy quinazolin-4-amine dihydrochloride]
TEAE, All: ALT increased (Phase 2 (N=48), 450 mg): 20 (41.7) count (percentage) | TEAE, All: AST increased (Phase 2 (N=48), 450 mg): 21 (43.8) count (percentage) | TEAE, All: Anemia (Phase 2 (N=48), 450 mg): 5 (10.4) count (percentage) | TEAE, All: Any (Phase 2 (N=48), 450 mg): 48 (100) count (percentage) | TEAE, All: Asthenia (Phase 2 (N=48), 450 mg): 7 (14.6) count (percentage) | TEAE, All: Blood ALP increased (Phase 2 (N=48), 450 mg): 5 (10.4) count (percentage) | TEAE, All: Blood creatinine increased (Phase 2 (N=48), 450 mg): 9 (18.8) count (percentage) | TEAE, All: COVID-19 (Phase 2 (N=48), 450 mg): 7 (14.6) count (percentage) | TEAE, All: Cough (Phase 2 (N=48), 450 mg): 6 (12.5) count (percentage) | TEAE, All: Decreased appetite (Phase 2 (N=48), 450 mg): 5 (10.4) count (percentage) | TEAE, All: Diarrhea (Phase 2 (N=48), 450 mg): 35 (72.9) count (percentage) | TEAE, All: Dizziness (Phase 2 (N=48), 450 mg): 3 (6.3) count (percentage) | TEAE, All: Electrocardiogram T wave abnormal (Phase 2 (N=48), 450 mg): 5 (10.4) count (percentage) | TEAE, All: Fecal occult blood positive (Phase 2 (N=48), 450 mg): 0 count (percentage) | TEAE, All: GGT increased (Phase 2 (N=48), 450 mg): 6 (12.5) count (percentage) | TEAE, All: Hypertension (Phase 2 (N=48), 450 mg): 11 (22.9) count (percentage) | TEAE, All: Hypertriglyceridemia (Phase 2 (N=48), 450 mg): 7 (14.6) count (percentage) | TEAE, All: Hypoalbuminemia (Phase 2 (N=48), 450 mg): 4 (8.3) count (percentage) | TEAE, All: Hypokalemia (Phase 2 (N=48), 450 mg): 11 (22.9) count (percentage) | TEAE, All: Hyponatremia (Phase 2 (N=48), 450 mg): 5 (10.4) count (percentage) | TEAE, All: Nausea (Phase 2 (N=48), 450 mg): 3 (6.3) count (percentage) | TEAE, All: Neutrophil counts decreased (Phase 2 (N=48), 450 mg): 7 (14.6) count (percentage) | TEAE, All: Platelet counts decreased (Phase 2 (N=48), 450 mg): 6 (12.5) count (percentage) | TEAE, All: Prolonged QT interval (Phase 2 (N=48), 450 mg): 21 (43.8) count (percentage) | TEAE, All: Proteinuria (Phase 2 (N=48), 450 mg): 16 (33.3) count (percentage) | TEAE, All: Rash (Phase 2 (N=48), 450 mg): 30 (62.5) count (percentage) | TEAE, All: Sinus tachycardia (Phase 2 (N=48), 450 mg): 5 (10.4) count (percentage) | TEAE, All: Urinary tract infection (Phase 2 (N=48), 450 mg): 5 (10.4) count (percentage) | TEAE, All: Vomiting (Phase 2 (N=48), 450 mg): 6 (12.5) count (percentage) | TEAE, All: Weight loss (Phase 2 (N=48), 450 mg): 5 (10.4) count (percentage) | TEAE, All: White blood cell counts decreased (Phase 2 (N=48), 450 mg): 8 (16.7) count (percentage) | TEAE, ≥ Grade 3: ALT increased (Phase 2 (N=48), 450 mg): 3 (6.3) count (percentage) | TEAE, ≥ Grade 3: AST increased (Phase 2 (N=48), 450 mg): 2 (4.2) count (percentage) | TEAE, ≥ Grade 3: Anemia (Phase 2 (N=48), 450 mg): 0 count (percentage) | TEAE, ≥ Grade 3: Any (Phase 2 (N=48), 450 mg): 35 (72.9) count (percentage) | TEAE, ≥ Grade 3: Asthenia (Phase 2 (N=48), 450 mg): 0 count (percentage) | TEAE, ≥ Grade 3: Blood ALP increased (Phase 2 (N=48), 450 mg): 0 count (percentage) | TEAE, ≥ Grade 3: Blood creatinine increased (Phase 2 (N=48), 450 mg): 0 count (percentage) | TEAE, ≥ Grade 3: COVID-19 (Phase 2 (N=48), 450 mg): 1 (2.1) count (percentage) | TEAE, ≥ Grade 3: Cough (Phase 2 (N=48), 450 mg): 0 count (percentage) | TEAE, ≥ Grade 3: Decreased appetite (Phase 2 (N=48), 450 mg): 1 (2.1) count (percentage) | TEAE, ≥ Grade 3: Diarrhea (Phase 2 (N=48), 450 mg): 6 (12.5) count (percentage) | TEAE, ≥ Grade 3: Dizziness (Phase 2 (N=48), 450 mg): 0 count (percentage) | TEAE, ≥ Grade 3: Electrocardiogram T wave abnormal (Phase 2 (N=48), 450 mg): 0 count (percentage) | TEAE, ≥ Grade 3: Fecal occult blood positive (Phase 2 (N=48), 450 mg): 0 count (percentage) | TEAE, ≥ Grade 3: GGT increased (Phase 2 (N=48), 450 mg): 0 count (percentage) | TEAE, ≥ Grade 3: Hypertension (Phase 2 (N=48), 450 mg): 9 (18.8) count (percentage) | TEAE, ≥ Grade 3: Hypertriglyceridemia (Phase 2 (N=48), 450 mg): 0 count (percentage) | TEAE, ≥ Grade 3: Hypoalbuminemia (Phase 2 (N=48), 450 mg): 0 count (percentage) | TEAE, ≥ Grade 3: Hypokalemia (Phase 2 (N=48), 450 mg): 3 (6.3) count (percentage) | TEAE, ≥ Grade 3: Hyponatremia (Phase 2 (N=48), 450 mg): 0 count (percentage) | TEAE, ≥ Grade 3: Nausea (Phase 2 (N=48), 450 mg): 0 count (percentage) | TEAE, ≥ Grade 3: Neutrophil counts decreased (Phase 2 (N=48), 450 mg): 2 (4.2) count (percentage) | TEAE, ≥ Grade 3: Platelet counts decreased (Phase 2 (N=48), 450 mg): 0 count (percentage) | TEAE, ≥ Grade 3: Prolonged QT interval (Phase 2 (N=48), 450 mg): 15 (31.3) count (percentage) | TEAE, ≥ Grade 3: Proteinuria (Phase 2 (N=48), 450 mg): 0 count (percentage) | TEAE, ≥ Grade 3: Rash (Phase 2 (N=48), 450 mg): 1 (2.1) count (percentage) | TEAE, ≥ Grade 3: Sinus tachycardia (Phase 2 (N=48), 450 mg): 0 count (percentage) | TEAE, ≥ Grade 3: Urinary tract infection (Phase 2 (N=48), 450 mg): 1 (2.1) count (percentage) | TEAE, ≥ Grade 3: Vomiting (Phase 2 (N=48), 450 mg): 0 count (percentage) | TEAE, ≥ Grade 3: Weight loss (Phase 2 (N=48), 450 mg): 0 count (percentage) | TEAE, ≥ Grade 3: White blood cell counts decreased (Phase 2 (N=48), 450 mg): 1 (2.1) count (percentage) | Serious TEAE: ALT increased (Phase 2, 450 mg (N=48)): 1 (2.1) No. (%) | Serious TEAE: AST increased (Phase 2, 450 mg (N=48)): 1 (2.1) No. (%) | Serious TEAE: Abdominal Pain (Phase 2, 450 mg (N=48)): 1 (2.1) No. (%) | Serious TEAE: Abdominal distension (Phase 2, 450 mg (N=48)): 1 (2.1) No. (%) | Serious TEAE: Acute cholecystitis (Phase 2, 450 mg (N=48)): 0 No. (%) | Serious TEAE: Acute pancreatitis (Phase 2, 450 mg (N=48)): 0 No. (%) | Serious TEAE: Anal abscess (Phase 2, 450 mg (N=48)): 0 No. (%) | Serious TEAE: Any (Phase 2, 450 mg (N=48)): 19 (39.6) No. (%) | Serious TEAE: Aortic intramural hematoma (Phase 2, 450 mg (N=48)): 0 No. (%) | Serious TEAE: Arrhythmia (Phase 2, 450 mg (N=48)): 0 No. (%) | Serious TEAE: Blood bilirubin increased (Phase 2, 450 mg (N=48)): 0 No. (%) | Serious TEAE: Blood creatinine increased (Phase 2, 450 mg (N=48)): 0 No. (%) | Serious TEAE: COVID-19 (Phase 2, 450 mg (N=48)): 1 (2.1) No. (%) | Serious TEAE: Cardiac tamponade (Phase 2, 450 mg (N=48)): 0 No. (%) | Serious TEAE: Coronary artery atherosclerosis (Phase 2, 450 mg (N=48)): 1 (2.1) No. (%) | Serious TEAE: Death (Phase 2, 450 mg (N=48)): 1 (2.1) No. (%) | Serious TEAE: Diarrhea (Phase 2, 450 mg (N=48)): 1 (2.1) No. (%) | Serious TEAE: Drug eruption (Phase 2, 450 mg (N=48)): 0 No. (%) | Serious TEAE: Dyspnea (Phase 2, 450 mg (N=48)): 1 (2.1) No. (%) | Serious TEAE: Embolism (Phase 2, 450 mg (N=48)): 1 (2.1) No. (%) | Serious TEAE: Erythema multiforme (Phase 2, 450 mg (N=48)): 1 (2.1) No. (%) | Serious TEAE: Headache (Phase 2, 450 mg (N=48)): 1 (2.1) No. (%) | Serious TEAE: Hemoptysis (Phase 2, 450 mg (N=48)): 0 No. (%) | Serious TEAE: Hydronephrosis (Phase 2, 450 mg (N=48)): 1 (2.1) No. (%) | Serious TEAE: Hypertension (Phase 2, 450 mg (N=48)): 2 (4.2) No. (%) | Serious TEAE: Hypoalbuminemia (Phase 2, 450 mg (N=48)): 0 No. (%) | Serious TEAE: Intestinal obstruction (Phase 2, 450 mg (N=48)): 0 No. (%) | Serious TEAE: Intra-abdominal fluid collection (Phase 2, 450 mg (N=48)): 1 (2.1) No. (%) | Serious TEAE: Intracranial tumor hemorrhage (Phase 2, 450 mg (N=48)): 1 (2.1) No. (%) | Serious TEAE: Liver injury (Phase 2, 450 mg (N=48)): 0 No. (%) | Serious TEAE: Lung adenocarcinoma (Phase 2, 450 mg (N=48)): 1 (2.1) No. (%) | Serious TEAE: Malignant neoplasm progression (Phase 2, 450 mg (N=48)): 1 (2.1) No. (%) | Serious TEAE: Multiple organ dysfunction syndrome (Phase 2, 450 mg (N=48)): 0 No. (%) | Serious TEAE: Nausea (Phase 2, 450 mg (N=48)): 0 No. (%) | Serious TEAE: Nephrolithiasis (Phase 2, 450 mg (N=48)): 1 (2.1) No. (%) | Serious TEAE: Platelet counts decreased (Phase 2, 450 mg (N=48)): 0 No. (%) | Serious TEAE: Pleural effusion (Phase 2, 450 mg (N=48)): 0 No. (%)

Source: paper PMC11868595, “Safety, pharmacokinetics and efficacy of HA121-28 in patients with advanced solid tumors and RET fusion-positive non-small-cell lung cancer: a multicenter, open-label, single-arm phase 1/2 trial” (Signal Transduction and Targeted Therapy, 2025)
